We go through three compounds from US10479786B2, “Protein kinase inhibitors” (Princeton Drug Discovery Inc, priority 2016, dated 2019).

pIC50: −log10 of the molar value. Bounds are passed on as bounds.

In data set [1] the target is T1, PIK3CA/PIK3R1 (Homo sapiens, UniProt P42336).
T1 construct: purchased Carna Biosciences, Inc
In words: Off-chip Mobility Shift Assay, kinase inhibition. As to conditions: at 10 nM; recombinant PIK3CA/PIK3R1. In kind it is biochemical.

Data set [2] deals with T2, FRK (Homo sapiens, UniProt P42685).
T2 construct: purchased Carna Biosciences, Inc
Briefly: Off-chip Mobility Shift Assay, kinase inhibition. In kind it is biochemical. As to conditions: at 10 nM; recombinant FRK.

The target of data set [3] is T3, EPHA1 (Homo sapiens, UniProt P21709).
T3 construct: purchased Carna Biosciences, Inc
T3 sequence (P21709 26-976): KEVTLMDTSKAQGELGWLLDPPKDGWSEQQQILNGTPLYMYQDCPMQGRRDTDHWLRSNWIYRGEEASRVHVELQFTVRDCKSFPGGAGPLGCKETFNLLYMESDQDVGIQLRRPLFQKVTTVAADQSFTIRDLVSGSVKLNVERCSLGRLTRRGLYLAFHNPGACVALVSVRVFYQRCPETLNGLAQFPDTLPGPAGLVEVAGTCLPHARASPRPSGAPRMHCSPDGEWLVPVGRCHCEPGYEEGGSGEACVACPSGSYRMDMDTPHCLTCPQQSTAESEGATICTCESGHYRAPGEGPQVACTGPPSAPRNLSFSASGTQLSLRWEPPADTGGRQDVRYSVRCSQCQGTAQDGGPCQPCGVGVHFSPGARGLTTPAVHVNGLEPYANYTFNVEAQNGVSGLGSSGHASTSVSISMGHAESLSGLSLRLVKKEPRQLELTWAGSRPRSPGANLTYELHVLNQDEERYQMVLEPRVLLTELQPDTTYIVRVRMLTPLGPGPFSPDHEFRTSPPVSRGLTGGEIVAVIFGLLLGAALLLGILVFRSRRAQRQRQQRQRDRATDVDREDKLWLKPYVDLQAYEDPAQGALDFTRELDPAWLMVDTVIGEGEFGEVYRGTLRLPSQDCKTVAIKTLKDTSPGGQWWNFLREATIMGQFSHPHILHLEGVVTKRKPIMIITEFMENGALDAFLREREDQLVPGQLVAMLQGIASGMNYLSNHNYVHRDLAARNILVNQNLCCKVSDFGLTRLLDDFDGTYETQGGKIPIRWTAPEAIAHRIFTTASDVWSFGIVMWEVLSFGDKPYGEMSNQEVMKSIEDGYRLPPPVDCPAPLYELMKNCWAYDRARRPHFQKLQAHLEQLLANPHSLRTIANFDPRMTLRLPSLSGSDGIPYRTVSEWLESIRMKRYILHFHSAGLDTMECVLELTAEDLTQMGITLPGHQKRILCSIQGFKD
Briefly: Off-chip Mobility Shift Assay, kinase inhibition. The note with it: at 10 nM; recombinant EPHA1. In kind it is biochemical.

The target in data set [4] is T4, TEC (Homo sapiens, UniProt P42680).
T4 construct: purchased Carna Biosciences, Inc
T4 sequence (P42680 1-631): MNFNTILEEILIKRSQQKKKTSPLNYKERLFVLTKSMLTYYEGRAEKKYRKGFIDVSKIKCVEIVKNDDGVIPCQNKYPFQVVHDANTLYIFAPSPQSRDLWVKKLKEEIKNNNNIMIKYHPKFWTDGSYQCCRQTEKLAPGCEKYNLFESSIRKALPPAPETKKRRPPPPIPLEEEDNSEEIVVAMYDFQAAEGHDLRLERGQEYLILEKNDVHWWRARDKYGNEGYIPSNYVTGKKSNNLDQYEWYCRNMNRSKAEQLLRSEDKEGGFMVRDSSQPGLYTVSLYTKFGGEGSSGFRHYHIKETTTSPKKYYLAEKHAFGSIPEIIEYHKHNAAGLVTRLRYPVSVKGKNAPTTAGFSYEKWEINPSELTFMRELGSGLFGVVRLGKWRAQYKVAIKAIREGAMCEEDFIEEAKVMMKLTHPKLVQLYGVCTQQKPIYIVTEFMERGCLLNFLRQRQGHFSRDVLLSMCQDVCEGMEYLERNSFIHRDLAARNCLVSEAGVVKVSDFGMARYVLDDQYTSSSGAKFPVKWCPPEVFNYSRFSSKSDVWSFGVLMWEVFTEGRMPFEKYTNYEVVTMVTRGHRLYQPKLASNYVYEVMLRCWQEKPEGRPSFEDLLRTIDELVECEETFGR
In words: Off-chip Mobility Shift Assay, kinase inhibition. The data set is classed as biochemical. As to conditions: at 1 nM; recombinant TEC.

Data set [5] addresses T5, FYN(isoform a) (Homo sapiens, UniProt P06241).
T5 construct: purchased Carna Biosciences, Inc
Briefly: Off-chip Mobility Shift Assay, kinase inhibition. As to conditions: at 10 nM; recombinant FYN(isoform a). In kind it is biochemical.

Data set [6] addresses T6, ACK (Homo sapiens, UniProt Q07912).
T6 construct: purchased Carna Biosciences, Inc
In words: Off-chip Mobility Shift Assay, kinase inhibition. In kind it is biochemical. As to conditions: at 10 nM; recombinant ACK.

The subject of data set [7] is Mino. Briefly: Cell inhibition assay (PrestoBlue, 48 h). The data set is classed as cell-based. As to conditions: Homo sapiens, Mino cells, read-out: IC50, inhibition of growth.
The target in data set [8] is T7, ABL(E255K) (Homo sapiens, UniProt P00519, E255K).
T7 construct: purchased Carna Biosciences, Inc
In words: Off-chip Mobility Shift Assay, kinase inhibition. The data set is classed as biochemical. The note with it: recombinant ABL(E255K); for inhibition at 0.001 µM: at 1 nM; for inhibition at 0.01 µM: at 10 nM.

For data set [9], the target named is T8, HCK (Homo sapiens, UniProt P08631).
T8 construct: purchased Carna Biosciences, Inc
In words: Off-chip Mobility Shift Assay, kinase inhibition. In kind it is biochemical. The note with it: recombinant HCK; for inhibition at 0.001 µM: at 1 nM; for inhibition at 0.01 µM: at 10 nM, read-out: inhibition.

A short description of data set [10]: Metabolic stability in human liver microsomes. The data set is classed as in vitro ADME. The note with it: for metabolic stability compared to dasatinib: human liver microsomes. Here is the method: FIG. 1. Metabolic stability of compounds in human liver microsomal incubations. […] Concentrations at specified times were determined by LC-MS/MS.
The incubation reactions at various time points were quenched by adding 2× volumes of acetonitrile containing 100 nM reserpine. The quenched incubation samples were centrifuged at 4000 RPM for 10 min, and the supernatants injected for LC/MS/MS analysis. LC/MS/MS analysis was carried out on a AB Sciex 4000 Q Trap LC/MS/MS system coupled with Shimadzu Prominence UFLCXR 20 series (including a CBM-20A controller, two LC-20ADXR solvent delivery units, SIL-20AC HT autosampler, CTO-20A column oven, and a SPD-20A UV detector).

The target of data set [11] is T9, ABL (Homo sapiens, UniProt P00519).
T9 construct: purchased Carna Biosciences, Inc
In words: Off-chip Mobility Shift Assay, kinase inhibition. The note with it: recombinant ABL; for inhibition at 0.001 µM: at 1 nM; for inhibition at 0.01 µM: at 10 nM. In kind it is biochemical.

T2 sequence (P42685 whole entry): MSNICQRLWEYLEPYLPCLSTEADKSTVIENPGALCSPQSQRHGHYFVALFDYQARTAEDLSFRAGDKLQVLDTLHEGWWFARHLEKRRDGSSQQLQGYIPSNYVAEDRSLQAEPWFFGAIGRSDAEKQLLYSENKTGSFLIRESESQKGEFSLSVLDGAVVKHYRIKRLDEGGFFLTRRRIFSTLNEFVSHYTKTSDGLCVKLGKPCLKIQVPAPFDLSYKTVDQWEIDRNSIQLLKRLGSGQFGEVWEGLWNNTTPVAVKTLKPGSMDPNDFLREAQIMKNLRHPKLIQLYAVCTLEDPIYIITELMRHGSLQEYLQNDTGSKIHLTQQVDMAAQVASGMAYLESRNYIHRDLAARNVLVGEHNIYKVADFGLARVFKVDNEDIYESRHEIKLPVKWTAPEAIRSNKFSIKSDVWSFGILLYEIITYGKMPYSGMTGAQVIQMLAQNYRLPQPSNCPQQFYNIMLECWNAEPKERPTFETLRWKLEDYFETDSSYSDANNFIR
T1 sequence (P42336 whole entry): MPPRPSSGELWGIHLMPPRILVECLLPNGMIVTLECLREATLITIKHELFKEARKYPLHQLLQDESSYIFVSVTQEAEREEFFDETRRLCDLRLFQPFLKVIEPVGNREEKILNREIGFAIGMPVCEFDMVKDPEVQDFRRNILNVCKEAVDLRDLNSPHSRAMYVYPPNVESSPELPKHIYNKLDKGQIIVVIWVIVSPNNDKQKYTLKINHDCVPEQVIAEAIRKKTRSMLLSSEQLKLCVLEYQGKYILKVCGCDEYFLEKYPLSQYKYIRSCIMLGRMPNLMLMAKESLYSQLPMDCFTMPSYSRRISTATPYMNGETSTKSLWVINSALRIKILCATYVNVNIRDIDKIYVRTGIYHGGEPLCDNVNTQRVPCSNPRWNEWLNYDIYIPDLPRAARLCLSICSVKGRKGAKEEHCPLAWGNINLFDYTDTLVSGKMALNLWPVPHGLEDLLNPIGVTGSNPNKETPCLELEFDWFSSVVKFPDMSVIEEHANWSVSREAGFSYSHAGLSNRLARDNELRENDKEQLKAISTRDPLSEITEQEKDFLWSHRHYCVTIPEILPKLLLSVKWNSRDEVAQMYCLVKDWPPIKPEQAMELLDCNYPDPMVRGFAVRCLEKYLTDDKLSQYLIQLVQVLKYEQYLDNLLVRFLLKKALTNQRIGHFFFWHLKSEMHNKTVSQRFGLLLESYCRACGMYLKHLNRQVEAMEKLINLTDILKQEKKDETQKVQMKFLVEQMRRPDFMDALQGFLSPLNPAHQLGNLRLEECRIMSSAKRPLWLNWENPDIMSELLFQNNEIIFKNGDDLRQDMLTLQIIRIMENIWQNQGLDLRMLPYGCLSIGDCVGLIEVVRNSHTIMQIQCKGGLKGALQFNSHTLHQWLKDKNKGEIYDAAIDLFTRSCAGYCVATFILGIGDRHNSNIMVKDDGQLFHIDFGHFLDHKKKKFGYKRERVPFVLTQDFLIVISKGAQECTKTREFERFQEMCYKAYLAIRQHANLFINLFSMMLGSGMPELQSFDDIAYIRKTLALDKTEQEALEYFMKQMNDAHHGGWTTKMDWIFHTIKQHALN
T1 sequence (P27986 whole entry partner): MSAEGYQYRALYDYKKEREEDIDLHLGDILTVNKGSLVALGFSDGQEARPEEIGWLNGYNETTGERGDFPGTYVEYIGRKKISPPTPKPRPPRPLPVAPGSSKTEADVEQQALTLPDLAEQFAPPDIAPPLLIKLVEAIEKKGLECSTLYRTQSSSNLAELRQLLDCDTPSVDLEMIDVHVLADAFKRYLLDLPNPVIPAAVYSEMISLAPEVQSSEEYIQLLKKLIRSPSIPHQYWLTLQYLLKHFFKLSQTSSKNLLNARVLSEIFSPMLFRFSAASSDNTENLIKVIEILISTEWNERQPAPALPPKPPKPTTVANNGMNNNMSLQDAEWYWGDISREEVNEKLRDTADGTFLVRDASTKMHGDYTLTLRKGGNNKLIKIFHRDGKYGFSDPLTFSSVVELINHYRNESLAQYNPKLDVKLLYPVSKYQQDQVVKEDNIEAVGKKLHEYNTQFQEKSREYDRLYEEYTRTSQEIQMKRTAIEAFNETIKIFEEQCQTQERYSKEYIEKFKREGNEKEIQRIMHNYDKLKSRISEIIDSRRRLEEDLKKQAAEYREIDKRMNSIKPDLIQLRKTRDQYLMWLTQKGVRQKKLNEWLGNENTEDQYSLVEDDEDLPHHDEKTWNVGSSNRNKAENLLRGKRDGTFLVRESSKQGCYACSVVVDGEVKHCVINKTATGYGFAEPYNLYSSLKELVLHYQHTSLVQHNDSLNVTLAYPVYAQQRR
T7 sequence (P00519 whole entry E255K): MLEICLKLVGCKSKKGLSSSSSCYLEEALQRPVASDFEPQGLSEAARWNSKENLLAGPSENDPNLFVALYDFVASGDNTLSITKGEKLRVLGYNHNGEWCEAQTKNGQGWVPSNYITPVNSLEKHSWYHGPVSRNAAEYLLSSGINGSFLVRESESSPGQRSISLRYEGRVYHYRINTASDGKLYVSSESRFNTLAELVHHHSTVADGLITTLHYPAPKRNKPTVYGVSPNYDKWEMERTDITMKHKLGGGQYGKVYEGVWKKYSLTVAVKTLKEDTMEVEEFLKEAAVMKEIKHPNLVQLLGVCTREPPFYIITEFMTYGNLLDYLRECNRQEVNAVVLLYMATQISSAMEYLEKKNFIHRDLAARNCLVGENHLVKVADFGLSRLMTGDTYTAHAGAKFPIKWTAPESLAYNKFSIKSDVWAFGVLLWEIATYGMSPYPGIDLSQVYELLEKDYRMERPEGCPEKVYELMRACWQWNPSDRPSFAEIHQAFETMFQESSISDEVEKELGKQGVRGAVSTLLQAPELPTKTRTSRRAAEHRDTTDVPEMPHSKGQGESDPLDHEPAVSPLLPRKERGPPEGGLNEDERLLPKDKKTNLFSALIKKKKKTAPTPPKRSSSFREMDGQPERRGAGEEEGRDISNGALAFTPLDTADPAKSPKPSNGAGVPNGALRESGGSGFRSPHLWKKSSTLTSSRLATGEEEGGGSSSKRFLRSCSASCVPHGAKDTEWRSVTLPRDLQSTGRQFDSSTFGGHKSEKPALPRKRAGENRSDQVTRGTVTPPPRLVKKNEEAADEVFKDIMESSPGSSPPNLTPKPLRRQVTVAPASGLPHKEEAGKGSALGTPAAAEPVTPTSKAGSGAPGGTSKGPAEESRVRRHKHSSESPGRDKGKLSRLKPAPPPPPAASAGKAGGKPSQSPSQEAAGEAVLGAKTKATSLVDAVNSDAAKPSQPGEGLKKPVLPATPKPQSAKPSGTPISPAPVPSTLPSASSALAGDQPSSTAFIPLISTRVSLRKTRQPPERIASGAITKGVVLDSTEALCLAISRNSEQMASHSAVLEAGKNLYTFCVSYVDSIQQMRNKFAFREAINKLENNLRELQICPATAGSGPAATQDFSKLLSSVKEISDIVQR
T8 sequence (P08631 whole entry): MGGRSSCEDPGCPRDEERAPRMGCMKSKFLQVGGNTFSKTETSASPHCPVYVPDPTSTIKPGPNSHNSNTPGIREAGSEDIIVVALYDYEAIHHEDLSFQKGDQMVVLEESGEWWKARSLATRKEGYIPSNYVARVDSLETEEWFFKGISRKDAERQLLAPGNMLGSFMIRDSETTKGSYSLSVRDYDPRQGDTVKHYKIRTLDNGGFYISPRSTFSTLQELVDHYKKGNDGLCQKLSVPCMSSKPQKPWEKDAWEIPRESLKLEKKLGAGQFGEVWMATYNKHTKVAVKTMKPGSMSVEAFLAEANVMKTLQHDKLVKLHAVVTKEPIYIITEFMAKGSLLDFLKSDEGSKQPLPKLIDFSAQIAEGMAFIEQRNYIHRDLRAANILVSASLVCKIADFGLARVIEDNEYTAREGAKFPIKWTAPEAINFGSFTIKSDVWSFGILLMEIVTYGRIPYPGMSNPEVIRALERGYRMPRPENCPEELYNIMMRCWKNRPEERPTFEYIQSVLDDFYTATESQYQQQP
T9 sequence (P00519 whole entry): as the sequence (P00519 whole entry E255K) above, with K255E counted along it
T5 sequence (P06241 whole entry, canonical isoform): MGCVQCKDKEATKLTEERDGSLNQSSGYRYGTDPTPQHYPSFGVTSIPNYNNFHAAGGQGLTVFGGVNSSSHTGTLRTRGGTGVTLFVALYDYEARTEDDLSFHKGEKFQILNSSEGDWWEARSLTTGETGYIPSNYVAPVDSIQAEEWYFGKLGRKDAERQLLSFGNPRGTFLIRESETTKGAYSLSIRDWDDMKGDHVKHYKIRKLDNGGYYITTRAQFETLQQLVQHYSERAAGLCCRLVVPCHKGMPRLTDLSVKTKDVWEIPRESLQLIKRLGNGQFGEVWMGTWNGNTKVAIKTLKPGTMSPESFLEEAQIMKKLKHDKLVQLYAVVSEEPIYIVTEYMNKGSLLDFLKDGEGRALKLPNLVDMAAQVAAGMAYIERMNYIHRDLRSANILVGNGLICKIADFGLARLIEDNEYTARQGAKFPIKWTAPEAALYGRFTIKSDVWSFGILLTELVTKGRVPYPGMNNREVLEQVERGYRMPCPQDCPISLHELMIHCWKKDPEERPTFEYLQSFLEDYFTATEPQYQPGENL

Consider `Cc1nc(Nc2ncc(C(=O)Nc3c(C)cccc3Cl)s2)cc(N2CC[C@@H](O)C2)n1` [Compound XI, N-(2-chloro-6-methylphenyl)-2-[[2-methyl-6-((R)-3-hydroxypyrrolidin-1-yl)pyrimidin-4-yl]amino]thiazole-5-carboxamide], for which the inhibition at 0.01 µM in data set [1], in data set [2], in [3], in data set [5], in data set [6] and in [8] was over 50% in each case. For the same compound, the inhibition at 0.01 µM in [9] and in data set [11] was over 50% throughout. Moreover, the inhibition at 0.001 µM in [4], in data set [8], in data set [9] and in data set [11] was over 50% throughout. Moreover, the pIC50 in data set [7] is over 7.30. In addition, in [10] (1 μM, human liver microsomes 0.5 mg/mL, NADPH and UDPGA, 37° C.), the “In vitro t1/2” value came out at 59 min. The “metabolic stability compared to dasatinib” value in [10] is recorded as “significantly greater stability”.

Turning to `Cc1nc(Nc2ncc(C(=O)Nc3c(C)cccc3Cl)s2)cc(N2CC[C@H](N)C2)n1` [Compound XII, N-(2-chloro-6-methylphenyl)-2-[[2-methyl-6-((S)-3-aminopyrrolidin-1-yl)pyrimidin-4-yl]amino]thiazole-5-carboxamide], the inhibition at 0.01 µM in data set [1], in [2], in [3], in data set [5], in [6] and in [8] was over 50% each time. Moreover, the inhibition at 0.01 µM in data set [9] and in data set [11] was over 50% each time. Further, the inhibition at 0.001 µM in [4], in data set [8], in [9] and in data set [11] was over 50% throughout. The pIC50 in data set [7] is over 7.30. For the same compound, the “metabolic stability compared to dasatinib” value in data set [10] is “significantly greater stability”.

For the compound `Cc1nc(Nc2ncc(C(=O)Nc3c(C)cccc3Cl)s2)cc(N2CC[C@@H](N)C2)n1` [Compound XIII, N-(2-chloro-6-methylphenyl)-2-[[2-methyl-6-((R)-3-aminopyrrolidin-1-yl)pyrimidin-4-yl]amino]thiazole-5-carboxamide], the inhibition at 0.01 µM in data set [1], in data set [2], in data set [3], in data set [5], in data set [6] and in data set [8] was over 50% in each case. The inhibition at 0.01 µM in data set [9] and in data set [11] was over 50% each time. Moreover, the inhibition at 0.001 µM in data set [4], in [8], in data set [9] and in data set [11] was over 50% each time. In addition, the pIC50 in [7] is over 7.30. In data set [10], the “metabolic stability compared to dasatinib” value is recorded as “significantly greater stability”.
